# Like-named read-outs stand apart in the source and are kept apart here.
# Experiments:
# Assay type in all cases: cell-based
# [1] = system: primary human total T-cells; experiment: T-cell activation assessed by CD69 expression
# How it was run: (§1)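 Primary human T-cells (>95% CD3+, negative selection from PBMC) were pre-incubated with inhibitor (e.g. 10, 1.11, 0.123 μM; DMSO <0.1%) for 1 h at 37 °C. They were then stimulated 48 h with plate-bound OKT3 (coated at 10 μg/mL), alone or with 5 μg/mL soluble anti-CD28. Results are fold change over uninhibited, identically stimulated cells.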
# [2] = system: primary human total T-cells; experiment: T-cell activation assessed by cytokine secretion (GM-CSF, IFNγ, TNFα)
# How it was run: as §1
# primary human NK cells = experiment: NK cell activation assessed by cytokine secretion (coculture with K562 NucRed target cells); settings: K562, NK cells cocultured with K562 NucRed, 1:1 E/T; for fold induction at 0.625 µM: 0.625 μM compound; for fold induction at 2.5 µM: 2.5 μM compound; for fold induction at 10 µM: 10 μM compound
# How it was run: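 Read-out is cytokine secretion (IFNγ, TNFα, MIP1β; ELISA or Luminex) as fold over coculture without inhibitor, >2.0-fold taken as positive. Donor NK cells, IL-2 primed (60 ng/mL) overnight, received compound 1 h ahead (e.g. 0.1–10 μM, DMSO <0.1%) and were mixed 6 h with K562 NucRed targets at e.g. 5:1, 1:1, 1:5.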
# T-cell = experiment: CD25 cell surface staining on T-cells stimulated with anti-CD3 antibody alone (Biological Example 2); settings: primary human total T-cells, baseline = anti-CD3/anti-CD28 stimulated cells without inhibitor, read-out: CD25 staining, Anti-CD3 stimulation, fold change over baseline; for fold induction at 1 µM: 1 μM compound; for fold induction at 8 µM: 8 μM compound
# [3] = CD3/CD28 stimulation, CD4 T-cells, read-out: % CD69+ (CD4)
# [4] = CD3/CD28 stimulation, CD8 T-cells, read-out: % CD69+ (CD8)
# [5] = CD3 alone stimulation, CD4 T-cells, read-out: % CD69+ (CD4)
# [6] = CD3 alone stimulation, CD8 T-cells, read-out: % CD69+ (CD8)
# [7] = CD3/CD28 stimulation, read-out: GM-CSF secretion
# [8] = CD3/CD28 stimulation, read-out: IFNγ secretion
# [9] = CD3/CD28 stimulation, read-out: TNFα secretion
# [10] = CD3 alone stimulation, read-out: GM-CSF secretion
# [11] = CD3 alone stimulation, read-out: IFNγ secretion
# [12] = CD3 alone stimulation, read-out: TNFα secretion
# [13] = read-out: IFNγ secretion, fold change over baseline
# [14] = read-out: TNFα secretion, fold change over baseline
SMILES,"fold induction at 1.11 µM [1, 3]","fold induction at 10 µM [1, 3]","fold induction at 1.11 µM [1, 4]","fold induction at 10 µM [1, 4]","fold induction at 1.11 µM [1, 5]","fold induction at 10 µM [1, 5]","fold induction at 1.11 µM [1, 6]","fold induction at 10 µM [1, 6]","fold induction at 1.11 µM [2, 7]","fold induction at 1.11 µM [2, 8]","fold induction at 1.11 µM [2, 9]","fold induction at 10 µM [2, 7]","fold induction at 10 µM [2, 8]","fold induction at 10 µM [2, 9]","fold induction at 1.11 µM [2, 10]","fold induction at 1.11 µM [2, 11]","fold induction at 1.11 µM [2, 12]","fold induction at 10 µM [2, 10]","fold induction at 10 µM [2, 11]","fold induction at 10 µM [2, 12]",further results
"C[C@H](Cc1nncn1C)c1cccc(N2Cc3c(cc(CN4CC[C@](C)(O)C4)cc3C(F)(F)F)C2=O)c1 [Compound 398, 6-(((S)-3-hydroxy-3-methylpyrrolidin-1-yl)methyl)-2-(3-((R)-1-(4-methyl-4H-1,2,4-triazol-3-yl)propan-2-yl)phenyl)-4-(trifluoromethyl)isoindolin-1-one]",1.4 to 1.6,1.4 to 1.6,1.2 to 1.4,1.2 to 1.4,> 1.6,> 1.6,1.2 to 1.4,1.4 to 1.6,2.01 to 4,3.01 to 4,2.01 to 4,> 4,> 4,2.01 to 4,2.01 to 4,< 2,≤ 1.5,> 4,< 2,2.01 to 4,fold induction at 0.625 µM (primary human NK cells; [13]): 2.01 to 5; fold induction at 0.625 µM (primary human NK cells; [14]): 1.01 to 2; fold induction at 2.5 µM (primary human NK cells; [13]): 2.01 to 5; fold induction at 2.5 µM (primary human NK cells; [14]): 2.01 to 5; fold induction at 10 µM (primary human NK cells; [13]): > 5; fold induction at 10 µM (primary human NK cells; [14]): 2.01 to 5; fold induction at 1 µM (T-cell): > 1; fold induction at 8 µM (T-cell): > 1
"Cc1n[nH]c(C)c1-c1cc2c(c(C(F)(F)F)c1)CN(c1cccc(C3(Cc4nncn4C)COC3)c1)C2=O [Compound 385, 6-(3,5-dimethyl-1H-pyrazol-4-yl)-2-(3-{3-[(4-methyl-4H-1,2,4-triazol-3-yl)methyl]oxetan-3-yl}phenyl)-4-(trifluoromethyl)-2,3-dihydro-1H-isoindol-1-one]",1.2 to 1.4,1.4 to 1.6,1.2 to 1.4,1.2 to 1.4,1.4 to 1.6,> 1.6,1.2 to 1.4,1.4 to 1.6,1.51 to 2,< 2,1.51 to 2,2.01 to 4,> 4,2.01 to 4,1.51 to 2,< 2,≤ 1.5,2.01 to 4,< 2,1.51 to 2,fold induction at 0.625 µM (primary human NK cells; [13]): 1.01 to 2; fold induction at 0.625 µM (primary human NK cells; [14]): < 1; fold induction at 2.5 µM (primary human NK cells; [13]): 2.01 to 5; fold induction at 2.5 µM (primary human NK cells; [14]): 1.01 to 2; fold induction at 10 µM (primary human NK cells; [13]): 2.01 to 5; fold induction at 10 µM (primary human NK cells; [14]): 1.01 to 2; fold induction at 1 µM (T-cell): > 1; fold induction at 8 µM (T-cell): > 1

# — patent publication US20220324835A1 (Nurix Therapeutics, Inc., priority 2018, published 2022)
